{
  "source": "patent US7879870B2",
  "about": "“Treatment of inflammatory and ulcerative diseases of the bowel with opioid antagonists” (priority 2006, dated 2011)",
  "key": {"[1]": {"conditions": "higher doses, i.e. 50 mg; cited from earlier work"}, "[2]": {"tested_on": "DSS-induced colitis in mice", "assay": "DSS-induced colitis in mice: histological inflammation score of distal colon (H&E)", "format": "in vivo, mouse", "protocol": "(§1) Mice in each group (Normal or DSS) were randomly subdivided into three treatment groups of eight mice each. After 72 hours, mice were treated once daily for six consecutive days with a subcutaneous injection (0.1 mL) of one of the following: saline (control), 6.3 μg/kg naltrexone (“NTX”), or 350 μg/kg NTX (Sigma Chemicals, St. Louis, Mo.). On day 9, all animals were necropsied and their colons resected.\n(§2) At necropsy, the entire colon was excised, measured in length, and bisected into proximal and distal portions. The proximal and distal colons were additionally divided for RNA extraction and histology. Each histology specimen was fixed in 10% neutral buffered formalin, paraffin embedded and sectioned for hematoxylin and eosin (“H&E”) staining. Specimens were examined microscopically and scored based upon the criteria established by Williams et al. by an investigator blinded to the treatment groups. Williams, et al., “Enhanced survival and mucosal repair after dextran sodium sulfate-induced colitis in transgenic mice that overexpress growth hormone,” Gastroenterology 120, 925-37 (2001). Briefly, a representative longitudinal section from each mouse was scored at six random fields for inflammation severity, extent of inflammation (mucosa, submucosa, transmural) and crypt damage. Each of these scores was weighted to reflect the percent involvement of the overall section and the weighted scores from each of the six fields were averaged to achieve an overall inflammation score for each mouse.\n(§3) Results were calculated as mean±SEM. Statistical comparisons were performed between NTX treatment sub-groups and their corresponding saline control, as well as between the Normal and DSS groups, comparing corresponding treatments. Parametric analyses were performed (Minitab 13, State College, Pa.) using a modified Bonferroni method to correct for multiple comparisons to controls."}, "[3]": {"tested_on": "DSS-induced colitis in mice", "assay": "DSS-induced colitis in mice: weight, food and water intake, modified DAI, colon length", "format": "in vivo, mouse", "source_text": "Six to eight-week-old male C57 black/6J mice (Charles River Laboratories, Inc., Wilmington, Mass.) were randomly allocated into one of two groups of 24 mice each. Food and water were provided ad libitum. The first group (Normal) received normal drinking water and the second group (DSS) received water containing 2% dextran sulfate sodium having a molecular weight of 40,000 (TdB Consultancy AB, Uppsala, Sweden) for six days followed by normal water for three additional days and necropsy on day 9 (FIG. 5A). Each mouse was housed in an individual cage for accurate measurement of food and water intake. Animal weight, water intake, and food consumption were measured daily. Bedding was changed and fresh stool pellets were collected daily and analyzed for occult blood. The colitis disease activity index (DAI) was calculated for each mouse according to the system established by Murthy and colleagues. See, Murthy, et al., “Treatment of dextran sulfate sodium-induced murine colitis by intracolonic cyclosporin,” Dig. Dis. Sci. 38, 1722-34 (1993). Overt changes in stool consistency were rarely discerned so a modified DAI was calculated based on percent weight loss and stool hemoccult or presence of gross bleeding.\nas §1, §2, §3"}, "[4]": {"tested_on": "mucin (Muc2), trefoil factor (TFF3), TGF-beta binding protein mRNA", "assay": "Distal colon RNA of DSS mice, microarray and quantitative RT-PCR", "format": "in vivo, mouse", "source_text": "(§4) Total RNA was extracted from the distal colon samples (using TRIZOL® available from Invitrogen Corp., Carlsbad, Calif.; TRIZOL® is a trademark of Molecular Research Center, Inc. of Cincinnati, Ohio) and subjected to microarray analysis using a 10K mouse microarray (MWG Biotech, High Point, N.C.) and a Packard Biosciences ScanArray 4000KL machine (Functional Genomics Core Facility of the Section of Research Resources, Penn State College of Medicine). To minimize the impact of variation among animals, RNA from individual mice was pooled within each treatment group. […] RNA from Normal+saline, DSS+6.3 μg/kg NTX, and DSS+350 μg/kg NTX were each tested versus DSS+saline. Data were analyzed with GenSpring 6 software (Agilent Technologies, Palo Alto, Calif.).\nRNA (18S and 28S bands) was visualized using the Agilent 2100 Bioanalyzer (Agilent Technologies, Santa Clara, Calif.) and concentrations were adjusted. […] The concentration and quality of resulting cDNA was quantified and analyzed using the Agilent 2100 Bioanalyzer or spectroscopically with the NanoDrop ND-1000 (NanoDrop Technologies, Wilmington, Del.). […] PCR amplification and analysis were performed with the Applied Biosystems Sequence Detection System 7300 using the Relative Quantification (ddCt). […]"}, "IL-5 mRNA": {"tested_on": "IL-5 mRNA", "assay": "Distal colon RNA of DSS mice, real-time RT-PCR", "format": "in vivo, mouse", "conditions": "DSS+NTX", "source_text": "as §4\n(§5) RNA (18S and 28S bands) was visualized using the Agilent 2100 Bioanalyzer (Agilent Technologies, Santa Clara, Calif.) and concentrations were adjusted. First strand cDNA was then produced from 1.0 μg of total RNA using random hexamer primers and the SuperScript III Reverse Transcription kit (Invitrogen). The concentration and quality of resulting cDNA was quantified and analyzed using the Agilent 2100 Bioanalyzer or spectroscopically with the NanoDrop ND-1000 (NanoDrop Technologies, Wilmington, Del.). Samples were standardized to 30 ng/μL and 60 ng of cDNA per sample was then used as a template for real-time PCR using a SYBR Green Master Mix (Qiagen, Valencia, Calif.). 18S rRNA primers (Eurogentec, San Diego, Calif.) and the following gene-specific primer sequences obtained from PrimerBank (pga.mgh.harvard.edu/primerbank) were used: beta-actin, 6671509a; IL-5, 6754336a; IL-6, 13642311a; IL-12, 6680395a; STAT3, 13277852a; STAT4, 6755670a; Muc2, 3452503a2; TFF3, 6755773a1; Palladin, 9828173a1; and TGF-beta BP, 7305243a1. To exclude the possibility of genomic DNA contamination, control reactions with no cDNA template were also performed for each gene-specific primer set. PCR amplification and analysis were performed with the Applied Biosystems Sequence Detection System 7300 using the Relative Quantification (ddCt). Amplification data for the genes of interest were normalized to 18S within each individual reaction. Triplicate reactions were performed and the resultant data from multiple runs were averaged."}, "beta-actin mRNA": {"tested_on": "beta-actin mRNA", "assay": "Distal colon RNA of DSS mice, real-time RT-PCR", "format": "in vivo, mouse", "conditions": "DSS+NTX", "source_text": "as §4, §5"}, "STAT3 mRNA": {"tested_on": "STAT3 mRNA", "assay": "Distal colon RNA of DSS mice, real-time RT-PCR", "format": "in vivo, mouse", "source_text": "as §4, §5"}, "IL-12 mRNA": {"tested_on": "IL-12 mRNA", "assay": "Distal colon RNA of DSS mice, real-time RT-PCR", "format": "in vivo, mouse", "conditions": "DSS mice treated with naltrexone", "source_text": "as §4, §5"}, "IL-6 mRNA": {"tested_on": "IL-6 mRNA", "assay": "Distal colon RNA of DSS mice, real-time RT-PCR", "format": "in vivo, mouse", "conditions": "DSS mice treated with naltrexone", "source_text": "as §4, §5"}, "STAT4 mRNA": {"tested_on": "STAT4 mRNA", "assay": "Distal colon RNA of DSS mice, real-time RT-PCR", "format": "in vivo, mouse", "source_text": "as §4, §5"}, "[5]": {"conditions": "DSS mice treated with naltrexone"}},
  "note": "Entries after “also recorded” stand apart in the source; their conditions may differ.",
  "data": [
    {"smiles": "O=C1CC[C@@]2(O)[C@H]3Cc4ccc(O)c5c4[C@@]2(CCN3CC2CC2)[C@H]1O5", "note": "[naltrexone]", "values": [
      {"measurement": "Liver transaminases", "setting": "[1]", "result": "elevate liver transaminases"},
      {"measurement": "Inflammation by histology compared to DSS+saline (in words)", "setting": "[2]; DSS mice, 350 μg/kg", "result": "less inflammation; also recorded: improved"},
      {"measurement": "Crypt architecture and invading leukocytes compared to DSS+saline", "setting": "[2]; DSS+350 μg/kg NTX", "result": "improved crypt architecture and fewer invading leukocytes"},
      {"measurement": "Inflammation scores of distal colon compared to DSS+saline", "setting": "[2]; DSS+NTX 6.3 and 350 μg/kg, trend did not reach statistical significance", "result": "dose-dependent decrease in inflammation and damage"},
      {"measurement": "Colonic inflammation, histology, Normal+saline versus Normal+NTX", "setting": "[2]; Normal mice (no DSS)", "result": "No differences in colonic inflammation"},
      {"measurement": "Mucosal integrity of the colon", "setting": "[2]; naltrexone alone (no DSS)", "result": "did not alter the mucosal integrity of the colon"},
      {"measurement": "Colon length", "setting": "[3]; DSS mice treated with naltrexone, still shorter than in untreated animals", "result": "more normal colon lengths"},
      {"measurement": "DAI scores / disease symptoms compared to DSS+saline (in words)", "setting": "[3]; DSS mice, 350 μg/kg", "result": "lower DAI scores; also recorded: decreased"},
      {"measurement": "Weight loss compared to DSS mice treated with saline", "setting": "[3]; DSS mice, 350 μg/kg", "result": "less weight loss; also recorded: decreased"},
      {"measurement": "Weight loss compared to DSS+saline", "setting": "[3]; DSS mice, naltrexone s.c. once daily from 72 hours", "result": "tended to be less"},
      {"measurement": "DAI scores of DSS mice (in words)", "setting": "[3]; DSS mice, naltrexone treatment", "result": "A reduction in these DAI scores was evident"},
      {"measurement": "Weight loss compared to DSS+saline, statistical significance", "setting": "[3]; DSS+6.3 μg/kg NTX, p=0.02", "result": "only reached statistical significance on day 6"},
      {"measurement": "Modified DAI scores", "setting": "[3]; Normal mice (no DSS), NTX-treated", "result": "no evidence of colitis"},
      {"measurement": "DAI scores lower than DSS+saline mice", "setting": "[3]; day 6, DSS+350 μg/kg NTX, p=0.015", "result": 55, "unit": "%"},
      {"measurement": "Weight at necropsy among the three DSS sub-groups", "setting": "[3]; day 9, off DSS for three days", "result": "no significant difference in weight"},
      {"measurement": "Food consumption", "setting": "[3]; naltrexone treatment alone (Normal mice, no DSS)", "result": "no effect on food consumption"},
      {"measurement": "Levels of Muc2, TFF3 and TGF-beta binding protein mRNAs, microarray", "setting": "[4]; DSS animals, either 6.3 or 350 μg/kg", "result": "restored the levels of these mRNAs in DSS animals to varying extents"},
      {"measurement": "Levels of Muc2, TFF3 and TGF-beta binding protein mRNAs, quantitative RT-PCR, versus Normal animals", "setting": "[4]; DSS+NTX animals", "result": "not significantly different from Normal animals"},
      {"measurement": "Expression of IL-5", "setting": "IL-5 mRNA", "result": "not significantly changed"},
      {"measurement": "Expression of beta-actin", "setting": "beta-actin mRNA", "result": "not significantly changed"},
      {"measurement": "STAT3 mRNA level versus colitis-free Normal controls", "setting": "STAT3 mRNA; [5]", "result": "statistically indistinguishable from colitis-free, Normal controls"},
      {"measurement": "STAT3 mRNA level, decrease after naltrexone treatment", "setting": "STAT3 mRNA; DSS mice, DSS+saline increased 2.20-fold", "result": "greater than 50%"},
      {"measurement": "DSS-induced up-regulation of STAT3 expression (in words)", "setting": "STAT3 mRNA; DSS-treated mice", "result": "reversed"},
      {"measurement": "IL-12 mRNA level versus colitis-free mice", "setting": "IL-12 mRNA", "result": "decreased to levels near or equal to that in mice without colitis; also recorded: restored mRNA expression to that seen in the colitis-free, Normal mice"},
      {"measurement": "IL-12 mRNA level versus DSS+saline", "setting": "IL-12 mRNA; DSS+saline increased three-fold", "result": "greatly reduced"},
      {"measurement": "IL-6 mRNA level versus colitis-free mice", "setting": "IL-6 mRNA", "result": "decreased to levels near or equal to that in mice without colitis; also recorded: not completely restored to those seen in the colitis-free animals"},
      {"measurement": "IL-6 mRNA level versus DSS+saline", "setting": "IL-6 mRNA; DSS+saline increased 73-fold", "result": "greatly reduced"},
      {"measurement": "STAT4 mRNA level versus Normal mice", "setting": "STAT4 mRNA; [5]", "result": "still slightly higher than in the Normal mice"},
      {"measurement": "STAT4 mRNA level, decrease after naltrexone treatment", "setting": "STAT4 mRNA; DSS mice, DSS+saline increased 8.03-fold", "result": "greater than 50%"},
      {"measurement": "DSS-induced up-regulation of STAT4 expression (in words)", "setting": "STAT4 mRNA; DSS-treated mice", "result": "reversed"}
    ]}
  ]
}
